Measured values taken from patent publication US20250127787A1, “METHODS FOR TREATING PERIPHERAL NEUROPATHY” (University of Pittsburgh - Of the Commonwealth System of …, priority 2021, published 2025).
Entries after “also recorded” stand apart in the source; their conditions may differ.

System: protein carbonylation
Test: Protein carbonylation in PAC-CIPN rat epidermis
Assay type: in vivo
Settings: 8-AG 5 mg/kg/day in drinking water
Method: Animals: This study employed female Harlan Sprague Dawley (HSD) rats (3-4 mo; Envigo, Indianapolis, IN) and were divided into the following groups: 1) Control, 2) Cyclophosphamide (CYP, 75 mg/kg i.p. in saline vehicle; administered on days 0, 3 and 6 until sacrifice on day 8); 4) Paclitaxel (2 mg/kg i.p., 2 mg/kg i.p. in saline from a stock solution of 50/50 CremophorEL/ethanol); administered on days 0, 2, 4 and 6 until sacrifice on day 8; 4) 8-aminoguanine (8-AG; 5 mg/kg/day in drinking water; beginning 2 weeks prior to either CYP or PAC and continuing until sacrifice (day 8)). The dose of 8-AG was based on the experiments described above. […] All tissues (spinal cord and hindpaw epidermis) were removed from isoflurane anesthetized rats and the tissue was used for various experimental approaches as described below. At the end of tissue removal, animals were sacrificed by thoracotomy. […]

Compound: Nc1nc2[nH]c(N)nc2c(=O)[nH]1 [8-AG, 8-Aminoguanine]
- effect on PAC-induced protein carbonylation: restored values to that of a control state; also recorded: significantly reduced
